{"source": "the NIST ThermoML archive (doi:10.1016/j.fluid.2015.10.027)", "conditions": "101.33 kPa, Liquid, Vibrating tube method", "note": "Numbers after ± are expanded uncertainties.", "data": [{"smiles": "CC1CCCC(C)N1", "note": "(stereo not given) [2,6-dimethylpiperidine]", "values": [{"measurement": "mass density", "setting": "300.83 K", "value": "816.664 ± 0.24", "unit": "kg/m3"}, {"measurement": "mass density", "setting": "304.05 K", "value": "813.975 ± 0.24", "unit": "kg/m3"}, {"measurement": "mass density", "setting": "306.72 K", "value": "811.615 ± 0.24", "unit": "kg/m3"}, {"measurement": "mass density", "setting": "309.8 K", "value": "809.031 ± 0.24", "unit": "kg/m3"}, {"measurement": "mass density", "setting": "313.97 K", "value": "805.478 ± 0.24", "unit": "kg/m3"}]}]}
